According to patent EP1600153A1, “Slow-release pharmaceutical composition allowing to monitor drug release” (Deutsches Krebsforschungszentrum Stiftung des öffentlichen …, priority 2004, dated 2005):

Experiments:
[1] = Subcutaneous liposome depot preparation in rats: amount of FLAMP at the site of injection by 19F-MRS in vivo; design: species or system Wistar rats
Protocol: 2 ml aqua bidest., 1,7 µl Magnevist™ and 200 mg Phospholipon™ 90H were added to a bottle for injection of Fludara™. The mixture was mixed by hand for 20 min. at room temperature. Then, the mixture was subjected to 6 cycles of vortexing for 2 min. and placing in a water bath at 64°C for 3 min.. Subsequently, the mixture was subjected to 6 cycles of holding in liquid nitrogen for 3 min. and placing in a water bath at 64°C for 6 min. Finally, the mixture was washed for four times with each of 10 ml phosphate buffer. After each washing step, the mixture was centrifuged for 15 min. at 10,000 x g. A colorless preparation having a consistency of a paste was obtained which was transferred to a syringe.
Adult male Wistar rats were bred in twos in isolators and received Altromin™ and water ad libitum. At day 1, in the morning rats were subcutaneously injected once with 1 ml of the pharmaceutical composition described in Example 1 into the right flank ("Luer"-canulla No.12 with screw thread). Injections and NMR-measurements were carried with rats which had been previously subjected to inhalation anesthesia (77% N2, 22% O2 and 1 - 1,2% Isofluran™) .
At day 1, in the morning (after the formulation had been injected) and in the afternoon, respectively, as well as at days 4, 13, 22, 29, 36 and 43 the following NMR-measurements were carried out: The amount of Fludarabin monophosphate (FLAMP) at the site of injection was determined by ^19F-MRS and the volume and the contrast intensity of the drug depot was measured by MRT.
A 1,5-T whole body tomograph(Magnetom Vision Plus, Siemens AG, Erlangen, Germany) was used for the NMR-measurements. For both, the ^19F-MRS and the ^1H-imaging a volume resonator which had been constructed by the DKFZ (resonance frequency: 63,6 MHz (^1H) , 59,9 MHz (^19F) with an inner diameter of 8.4 cm was used which served as transmitting- and receiving coil.
After the rats had been positioned (subcutaneous liposome depot in the middle of the resonator) the volume resonator was manually tuned to the ^1H resonance frequency. After "Shim" (optimization of field homogeneity) by use of the ^1H-tissue water resonance line and subsequent tuning of the coil to the ^19F resonance frequency the ^19F spectra were recorded. The reading sequence comprised a simple non-layer-specific pulsed excitation with subsequent recording of 1024 readings in 51.2 ms corresponding to the fast T2-decay of the FID. The recording period of TA = 33:21 min. resulted from a repetition time TR = 100 ms and a number of NEX = 20000 excitations.
In order to get a reference for the chemical shift and the signal intensity of FLAMP a 0.5 ml reference solution containing 400 mM NaF was applied to the middle of the underside of the volume resonator with the resonance of this solution being at about -40 ppm (with reference to TFA). The follow-up editing of the spectra was carried out by use of the software LUISE which is implemented to the tomograph. […] The relation of the integrals of the resonances of FLAMP to NaF served as a reference value for the individual readings. ^1H-imaging with high resolution was carried with a T1-weighted 3D-gradient-echo-method (3D-FLASH) with lipid saturation (parameters used for measurements: TR = 45 ms; TE = 11 ms; α = 30; FOV = 50 mm; matrix-size = 128 x 128; period of acquisition for the individual readings: 15,36 ms). Multiple transverse layer images of the liposome depots were recorded with layers having an actual thickness of 2, 1- and 0,4 mm, respectively. […]

[2] = course of plasma level corresponds to that after intravenous application; cited from earlier work
[3] = Subcutaneous injection of FLAMP solution (control): 19F MRS in vivo at the site of injection; design: species or system rat
Protocol: Subcutaneous injection of 34 mcmol FLAMP, along with 0.5 mcmol Gd-DTPA, as a 1 ml-solution in an adult male rat, 19F MRS in vivo at the site of injection. Relative FLAMP signal (peak area of FLAMP / peak area of external NaF standard) versus time after injection.
(§1) A solution of the drug and the contrast agent was injected subcutaneously, followed by local MRS and MRI monitoring as in Example 2, in order to test whether either agent might be locally detectable even after release from the depot preparation. The injection volume (1 ml) and the amount of drug (FLAMP, 34 mcmoles) were the same as in Example 2 while the amount of contrast agent was doubled (Gd-DTPA, 0.5 mcmol).

[4] = Subcutaneous injection of Gd-DTPA solution (control): 1H MR imaging at the site of injection; format: in vivo, rat
Protocol: Subcutaneous injection of 0.5 mcmol Gd-DTPA (along with 34 mcmol FLAMP), as a 1 ml-solution in an adult male rat (left flank). Transversal 1H MR images (slice thickness 2 mm) from the region of the injection, taken 85 min after injection. Images numbered in caudal-cranial direction.
as §1

| Compound | drug amounts injected still present at the site of injection ([1]; day 13 post injection, s.c. 1 ml liposome depot (Phospholipon, Fludara, Magnevist), 19F-NMR-spectroscopy) [%] | drug amounts injected still present at the site of injection ([1]; end of the experiment (day 43, six weeks), s.c. liposome depot) [%] | amounts of drug available for release, of the amounts initially injected ([1]; end of the period, about six weeks after subcutaneous injection of depot) [%] | time at which amount of FLAMP at the site of injection started to decrease continuously ([1]; s.c. liposome depot, 19F-MRS) | amounts of drug available for release, of the amounts initially injected ([1]; start of the period, about one week after subcutaneous injection of depot) [%] | absorption after subcutaneous application [2] | 19F MRS signal from the drug at the site of injection ([3]; 8 min after s.c. injection of solution, 34 mcmoles FLAMP in 1 ml) | 19F MRS signal from the drug at the site of injection ([3]; after 24 hours, s.c. solution, 34 mcmoles FLAMP) | disappearance of MRS signals from the drug itself or indistinguishable metabolites ([3]; drug injected as a solution) | drop of 19F MRS signal from the drug ([3]; within 5 hours after s.c. injection of solution, 34 mcmoles FLAMP) | contrast enhancement at the site of injection (1H-images, 24 adjacent 2 mm layers) ([4]; 85 min after s.c. injection of solution, 0.5 mcmol Gd-DTPA) | area of remaining contrast enhancement ([4]; 85 min after s.c. injection of solution, 0.5 mcmol Gd-DTPA, three adjacent layers) | contrast enhancement left at the site of administration ([4]; one and a half hours after subcutaneous injection of Gd-DTPA solution) |
| --- | --- | --- | --- | --- | --- | --- | --- | --- | --- | --- | --- | --- | --- |
| Nc1nc(F)nc2c1ncn2[C@@H]1O[C@H](COP(=O)(O)O)[C@@H](O)[C@@H]1O [FLAMP, Fludarabin-5'-monophosphate] | 70 | 10 | 12 | About one week after injection | 70 | immediately absorbed | about the same as on day 1 after injecting the depot preparation | no longer detectable | disappear within a few hours | more than 90 | – | – | – |
| gadolinium-DPTA [Gd-DTPA] | – | – | – | – | – | – | – | – | – | – | only a faint diffuse contrast enhancement was detectable in three adjacent layers | about 212 mm | Almost no contrast enhancement was left |
